Data taken from BindingDB's records for doi:10.1016/j.bmc.2017.01.005 (University of New Mexico, 2017).

target: T1, Nuclear factor erythroid 2-related factor 2 (Homo sapiens, UniProt Q16236); experiment: Activation of Nrf2 (unknown origin) expressed in human HepG2 cells after 5 hrs by ARE-driven luciferase reporter gene assay
T1 sequence (Q16236 whole entry): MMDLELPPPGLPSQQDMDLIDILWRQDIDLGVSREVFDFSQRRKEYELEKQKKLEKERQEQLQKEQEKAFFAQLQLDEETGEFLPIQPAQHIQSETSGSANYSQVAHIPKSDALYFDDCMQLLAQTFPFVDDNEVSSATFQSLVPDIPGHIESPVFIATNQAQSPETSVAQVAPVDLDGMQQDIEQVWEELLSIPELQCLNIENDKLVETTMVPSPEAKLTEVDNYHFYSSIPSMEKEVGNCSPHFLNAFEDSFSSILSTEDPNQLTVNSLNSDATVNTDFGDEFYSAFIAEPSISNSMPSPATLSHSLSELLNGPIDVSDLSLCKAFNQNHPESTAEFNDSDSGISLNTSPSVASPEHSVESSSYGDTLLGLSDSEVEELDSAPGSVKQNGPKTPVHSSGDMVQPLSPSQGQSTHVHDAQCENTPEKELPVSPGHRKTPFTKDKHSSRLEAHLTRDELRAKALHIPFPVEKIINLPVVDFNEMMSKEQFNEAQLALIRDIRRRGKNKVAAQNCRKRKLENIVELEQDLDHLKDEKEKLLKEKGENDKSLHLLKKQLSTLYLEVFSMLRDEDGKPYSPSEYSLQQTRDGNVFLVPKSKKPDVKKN

EC50 | Structure (SMILES)
1.4 µM | Cc1ccc(/C=C/c2ccccc2F)cc1
3.1 µM | COc1ccc(/C=C/c2ccccc2Cl)cc1 [US8980954, 6j]
8.9 µM | COc1ccc(/C=C/c2cccc(F)c2)cc1 [US8980954, 6n]
3.6 µM | Fc1ccc(/C=C/c2ccccc2F)cc1
1.3 µM | Cc1ccc(/C=C/c2ccc(F)cc2)cc1
5 µM | Fc1cccc(/C=C/c2ccc(F)c(F)c2)c1
4.6 µM | COc1ccc(/C=C/c2ccc(OC)cc2OC)cc1 [(E)2'',4,4''-Trimethoxystilbene]
> 15 µM | COc1ccc(/C=C/c2cccc(O)c2)cc1
2.9 µM | COc1cccc(/C=C/c2ccc(F)cc2)c1OC
1.5 µM | Cc1ccc(/C=C/c2cccc(C(F)(F)F)c2)cc1
4.4 µM | COc1cccc(/C=C/c2ccccc2OC)c1
0.45 µM | Fc1cccc(/C=C/c2ccc(F)cc2F)c1
2.2 µM | COc1cccc(/C=C/c2ccc(C(F)(F)F)cc2)c1OC
2.6 µM | COc1ccc(/C=C/c2ccc(F)cc2)cc1OC
> 15 µM | Fc1ccc(/C=C/c2ccc(F)c(F)c2)cc1
12.4 µM | Fc1ccc(/C=C/c2ccccc2)cc1
5.4 µM | Oc1ccc(/C=C/c2cc(O)cc(O)c2)cc1 [5-[(E)-2-(4-hydroxyphenyl)ethenyl]benzene-1,3-diol]
2.9 µM | Fc1ccc(/C=C/c2cc(F)ccc2F)cc1
0.65 µM | Fc1ccc(/C=C/c2cccc(F)c2)cc1

EC50 | Structure (SMILES)
0.8 µM | Cc1ccc(/C=C/c2cccc(F)c2)cc1
0.9 µM | Fc1ccc(/C=C/c2ccc(F)cc2F)cc1
> 15 µM | COc1cccc(/C=C/c2cc(OC)ccc2OC)c1
4.3 µM | Fc1ccccc1/C=C/c1ccccc1F
3.1 µM | Fc1cccc(/C=C/c2ccccc2)c1
1.9 µM | COc1cccc(/C=C/c2cccc(F)c2)c1OC
2.6 µM | Cc1ccc(/C=C/c2ccc(F)c(F)c2)cc1
0.8 µM | COc1ccc(OC)c(/C=C/c2ccc(OC)cc2OC)c1
2 µM | Cc1ccc(/C=C/c2ccc(F)cc2F)cc1
1.6 µM | Fc1ccccc1/C=C/c1ccc(Cl)cc1
5.4 µM | COc1ccc(/C=C/c2ccccc2F)cc1 [US8980954, 6p]
9.5 µM | COc1ccc(/C=C/c2cccc(F)c2)cc1OC [4-(3-fluorostyryl)-1,2-dimethoxybenzene]
3.2 µM | COc1ccc(/C=C/c2cc(F)ccc2F)cc1
6.9 µM | Fc1cccc(F)c1/C=C/c1ccccc1
2.7 µM | COc1cccc(/C=C/c2ccc(C(C)C)cc2)c1OC
4.7 µM | COc1cccc(/C=C/c2ccccc2)c1OC
3.8 µM | COc1cccc(/C=C/c2ccccc2F)c1
0.7 µM | Fc1ccccc1/C=C/c1ccccc1
11.4 µM | Oc1ccc(/C=C/c2ccccc2F)cc1

EC50 | Structure (SMILES)
5.9 µM | Fc1ccc(F)c(/C=C/c2ccccc2F)c1
3.7 µM | COc1ccc(/C=C/c2ccc(O)c(OC)c2)cc1
> 15 µM | Fc1ccc(/C=C/c2ccccc2F)cc1F
3 µM | O=[N+]([O-])c1cccc(/C=C/c2ccccc2)c1
4.4 µM | COc1ccccc1/C=C/c1ccccc1
6 µM | COc1cccc(/C=C/c2ccc(F)cc2)c1
3.1 µM | COc1ccccc1/C=C/c1ccccc1F
2.3 µM | COc1cccc(/C=C/c2cccc(F)c2)c1
5.1 µM | COc1ccc(OC)c(/C=C/c2ccc(F)cc2)c1
> 15 µM | Fc1cccc(/C=C/c2ccccc2F)c1
3.3 µM | COc1ccc(/C=C/c2cccc([N+](=O)[O-])c2)cc1
> 15 µM | COc1ccc(/C=C/c2ccc(F)c(F)c2)cc1
3.7 µM | Cc1ccc(/C=C/c2cccc([N+](=O)[O-])c2)cc1
9.6 µM | Fc1ccc(/C=C/c2ccccc2F)c(F)c1
1.4 µM | Fc1ccccc1/C=C/c1c(F)cccc1F
1 µM | Fc1cccc(/C=C/c2cccc(F)c2)c1
1.1 µM | COc1cccc(/C=C/c2ccc(C)cc2)c1OC
4.2 µM | COc1ccc(/C=C/c2ccc(F)cc2)cc1
0.3 µM | Fc1cccc(/C=C/c2cc(F)ccc2F)c1
